Laboratory results: paper PMC10455244, “Alpha-Mangostin: A Potent Inhibitor of TRPV3 and Pro-Inflammatory Cytokine Secretion in Keratinocytes” (International Journal of Molecular Sciences, 2023)

Columns and labels:
[1] = test system: HEK 293T cells expressing the WT TRPV3; assay: in vitro; type: cell-based, human; conditions: 24 h
[2] = test system: TNF-α; assay: ELISA, TNF-α release in NHEK; type: cell-based, human; conditions: 1 µM with 300 µM carvacrol, 24 h
From the text: Constitutive activation of TRPV3 due to continuous stimulation or the presence of Olmsted mutations causes noticeable skin inflammation due to the increased secretion of pro-inflammatory cytokines from the keratinocytes. Besides, in atopic dermatitis (AD), cytokine release from keratinocytes contributes to the inflammatory environment, which drives many characteristic AD symptoms. Therefore, we determined the effect of TRPV3 activation on cytokine release instead of TRPV3 expression and evaluated whether alpha-mangostin suppressed TRPV3-mediated cytokine secretion in normal human keratinocytes. The levels of secreted cytokines (interleukin (IL)-6, IL-8, and tumor necrosis factor-alpha (TNF-α)) were measured using enzyme-linked Immunosorbent assay (ELISA) kits due to their high sensitivity and quantitation ability. The cells were induced with 300 µM carvacrol, with or without 1 µM alpha-mangostin, and 10 µM 74a.
Figure 5 Alpha-mangostin (α-MG) inhibited carvacrol-induced cytokine release in NHEK cells and rescued carvacrol-induced cell death. (A) Alpha-mangostin inhibited the carvacrol-induced release of IL-8 and IL-6 in NHEK. Cells were induced by 300 µM carvacrol with or without either 1 µM alpha-mangostin or 10 µM 74a for 24 h before the ELISA assay. (B) Alpha-mangostin reduced cell death caused by carvacrol in human keratinocytes. […]

`COc1c(O)cc2oc3cc(O)c(CC=C(C)C)c(O)c3c(=O)c2c1CC=C(C)C` [Alpha-mangostin] was tested, and the “Increase of viability of cells expressing the WT channel” value ([1]; 1 µM alone) was “not statistically significant”, the “Cell viability (normalized O.D., compared with mock cells)” value ([1]; human, 1 µM) was 82.07% ± 1.34 and the “Effect on TNF-α levels” value [2] was “no changes”.
